Key:
[1] = Prodrug conversion in Sprague-Dawley rat colon content suspension assessed as tofacitinib release measured upto 8 hrs by HPLC analysis; assay type: ADME, tissue-based
[2] = Chemical stability in simulated intestinal fluid assessed as parent compound remaining incubated for 12 hrs by LC-MS/MS analysis; assay type: ADME, physicochemical; conditions: simulated gi fluid
[3] = Chemical stability of compound in pH 7.4 PBS buffer at 100 uM incubated for 24 hrs by HPLC analysis; assay type: physicochemical; conditions: pH 7.4, 24 h
[4] = Chemical stability in simulated gastric fluid assessed as parent compound remaining incubated for 12 hrs by LC-MS/MS analysis; assay type: ADME, physicochemical; conditions: simulated gi fluid
[5] = Chemical stability of compound in pH 1.2 HCl buffer at 100 uM incubated for 24 hrs by HPLC analysis; assay type: physicochemical; conditions: pH 1.2, 24 h
[6] = Chemical stability of compound in pH 4.5 PBS buffer at 100 uM incubated for 24 hrs by HPLC analysis; assay type: physicochemical; conditions: pH 4.5, 24 h
[7] = Prodrug conversion in BALB/c mouse colon assessed as tofacitinib AUC(0 to 12 hrs) at 15 mg/kg, po measured upto 12 hrs by LC-MS/MS analysis; assay type: ADME, organism-based; parameters: route oral, dose 15 mg/kg, time <=12; conditions: in vivo
[8] = Prodrug conversion in BALB/c mouse jejunum assessed as tofacitinib AUC(0 to 12 hrs) at 15 mg/kg, po measured upto 12 hrs by LC-MS/MS analysis; assay type: ADME, organism-based; parameters: route oral, dose 15 mg/kg, time <=12; conditions: in vivo
[9] = Prodrug conversion in BALB/c mouse duodenum assessed as tofacitinib AUC(0 to 12 hrs) at 15 mg/kg, po measured upto 12 hrs by LC-MS/MS analysis; assay type: ADME, organism-based; parameters: route oral, dose 15 mg/kg, time <=12; conditions: in vivo
[10] = Prodrug conversion in Sprague-Dawley rat assessed as Tmax of tofacitinib at 15 mg/kg, po measured up to 12 hrs by LC-MS/MS analysis; assay type: ADME, organism-based; conditions: in vivo
[11] = Prodrug conversion in Sprague-Dawley rat assessed as elimination half life of tofacitinib at 15 mg/kg, po measured up to 12 hrs by LC-MS/MS analysis; assay type: ADME, organism-based; conditions: in vivo
[12] = Prodrug conversion in Sprague-Dawley rat assessed as AUC (0 to infinity) of tofacitinib at 15 mg/kg, po measured up to 12 hrs by LC-MS/MS analysis; assay type: ADME, organism-based; parameters: route oral, dose 15 mg/kg, time <=12; conditions: in vivo
[13] = Prodrug conversion in BALB/c mouse plasma assessed as tofacitinib AUC(0 to 12 hrs) at 15 mg/kg, po measured upto 12 hrs by LC-MS/MS analysis; assay type: ADME, organism-based; parameters: route oral, dose 15 mg/kg, time <=12; conditions: in vivo
[14] = Prodrug conversion in Sprague-Dawley rat assessed as Cmax of tofacitinib at 15 mg/kg, po measured up to 12 hrs by LC-MS/MS analysis; assay type: ADME, organism-based; parameters: route oral, dose 15 mg/kg, time <=12; conditions: in vivo
[15] = Prodrug conversion in BALB/c mouse ileum assessed as tofacitinib AUC(0 to 12 hrs) at 15 mg/kg, po measured upto 12 hrs by LC-MS/MS analysis; assay type: ADME, organism-based; parameters: route oral, dose 15 mg/kg, time <=12; conditions: in vivo

| Drug metabolism [1] | Stability [2] | Stability [3] | Stability [4] | Stability [5] | Stability [6] | AUC [7] | AUC [8] | AUC [9] | Tmax [10] | beta t1/2 [11] | AUC [12] | AUC [13] | Cmax [14] | AUC [15] | Compound |
| --- | --- | --- | --- | --- | --- | --- | --- | --- | --- | --- | --- | --- | --- | --- | --- |
| 1.6 mmol/L/h | Stable | Stable | Stable | Stable | Stable |  |  |  |  |  |  |  |  |  | Cc1cc(COC(=O)N(C)CCN(C)C(=O)n2ccc3c(N(C)[C@H]4CN(C(=O)CC#N)CC[C@H]4C)ncnc32)ccc1/N=N/c1ccc(O)c(C(=O)O)c1 |
|  |  |  |  |  |  | 167 µM·h | 43 µM·h | 67 µM·h | 0.42 h | 3.94 h | 70.66 µM·h | 7.1 µM·h | 54.9 µM | 50.3 µM·h | C[C@@H]1CCN(C(=O)CC#N)C[C@@H]1N(C)c1ncnc2[nH]ccc12.O=C(O)CC(O)(CC(=O)O)C(=O)O [TOFACITINIB CITRATE] |
